We go through 42 molecules from ChEMBL document CHEMBL3351796, “Discovery of potent and selective sirtuin 2 (SIRT2) inhibitors using a fragment-based approach” (J Med Chem, 2014).

Experiment [1] addresses T1, NAD-dependent protein deacetylase sirtuin-1 (Homo sapiens) (UniProt Q96EB6).
T1 sequence (whole entry): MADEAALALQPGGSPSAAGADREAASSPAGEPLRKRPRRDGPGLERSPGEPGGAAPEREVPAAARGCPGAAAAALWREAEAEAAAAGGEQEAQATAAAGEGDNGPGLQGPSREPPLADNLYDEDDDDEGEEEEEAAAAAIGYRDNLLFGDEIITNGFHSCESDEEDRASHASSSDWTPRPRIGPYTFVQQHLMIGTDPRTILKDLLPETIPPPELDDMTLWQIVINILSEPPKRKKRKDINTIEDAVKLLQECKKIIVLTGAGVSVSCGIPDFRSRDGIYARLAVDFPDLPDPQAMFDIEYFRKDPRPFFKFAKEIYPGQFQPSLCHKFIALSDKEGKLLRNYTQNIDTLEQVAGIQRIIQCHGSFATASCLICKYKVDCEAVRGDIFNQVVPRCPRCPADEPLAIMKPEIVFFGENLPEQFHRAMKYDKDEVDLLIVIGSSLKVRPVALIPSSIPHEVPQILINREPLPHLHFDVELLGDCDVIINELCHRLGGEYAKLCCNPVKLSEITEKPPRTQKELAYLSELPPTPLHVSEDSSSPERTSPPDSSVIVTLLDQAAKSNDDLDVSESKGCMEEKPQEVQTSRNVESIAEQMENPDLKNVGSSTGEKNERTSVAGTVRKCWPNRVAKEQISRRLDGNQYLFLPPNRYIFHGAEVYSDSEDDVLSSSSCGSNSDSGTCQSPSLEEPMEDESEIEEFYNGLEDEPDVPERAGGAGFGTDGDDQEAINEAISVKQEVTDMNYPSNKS
The experiment is described as follows: Inhibition of full length human SIRT1 expressed in Escherichia coli BL21 (DE3) cells at 100 uM using fluorogenic 7-amino-4-methylcoumarin (AMC)-labeled peptide by fluorescence assay.

Experiment [2] addresses T2, NAD-dependent protein deacetylase sirtuin-2 (Homo sapiens) (UniProt Q8IXJ6).
T2 sequence (whole entry): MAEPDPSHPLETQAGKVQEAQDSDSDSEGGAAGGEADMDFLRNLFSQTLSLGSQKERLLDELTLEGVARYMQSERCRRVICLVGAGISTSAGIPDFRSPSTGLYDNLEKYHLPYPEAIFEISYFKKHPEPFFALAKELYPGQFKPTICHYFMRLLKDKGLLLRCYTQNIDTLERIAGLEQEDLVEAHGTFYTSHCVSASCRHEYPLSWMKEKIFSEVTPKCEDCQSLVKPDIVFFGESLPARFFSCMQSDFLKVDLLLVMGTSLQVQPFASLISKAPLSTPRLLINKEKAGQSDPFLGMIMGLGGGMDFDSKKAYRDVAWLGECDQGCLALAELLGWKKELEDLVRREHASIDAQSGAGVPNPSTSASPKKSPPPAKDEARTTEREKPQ
The experiment is described as follows: Inhibition of full length human SIRT2 expressed in Escherichia coli BL21 (DE3) cells at 100 uM using fluorogenic 7-amino-4-methylcoumarin (AMC)-labeled peptide by fluorescence assay.

Experiment [3] addresses T3, NAD-dependent protein deacetylase sirtuin-3, mitochondrial (Homo sapiens) (UniProt Q9NTG7).
T3 sequence (whole entry): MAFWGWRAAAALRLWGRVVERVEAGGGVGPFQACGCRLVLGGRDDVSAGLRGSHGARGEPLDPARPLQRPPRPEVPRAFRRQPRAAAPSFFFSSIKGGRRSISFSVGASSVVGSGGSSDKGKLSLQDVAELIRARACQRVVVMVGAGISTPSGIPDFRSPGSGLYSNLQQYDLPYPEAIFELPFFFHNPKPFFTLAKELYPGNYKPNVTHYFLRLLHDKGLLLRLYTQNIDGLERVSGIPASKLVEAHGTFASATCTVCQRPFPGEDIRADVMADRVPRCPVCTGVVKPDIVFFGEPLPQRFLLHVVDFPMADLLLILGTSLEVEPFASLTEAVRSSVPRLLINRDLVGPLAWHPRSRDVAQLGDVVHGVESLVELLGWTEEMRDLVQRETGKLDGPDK
Particulars: BL21-DE3, 100 uM.

Experiment [4] deals with T4, NAD-dependent protein deacetylase sirtuin-1 (Homo sapiens, UniProt Q96EB6).
T4 sequence (Q96EB6 whole entry): T1 sequence (whole entry)
In words: biochemical. The class given is cell-based, BL21-DE3.
Description: Inhibition of full length human SIRT1 expressed in Escherichia coli BL21 (DE3) cells using fluorogenic 7-amino-4-methylcoumarin (AMC)-labeled peptide by fluorescence assay

Experiment [5] addresses T5, NAD-dependent protein deacetylase sirtuin-2 (Homo sapiens, UniProt Q8IXJ6).
T5 sequence (Q8IXJ6 whole entry): T2 sequence (whole entry)
In words: Inhibition of full length human SIRT2 expressed in Escherichia coli BL21 (DE3) cells using fluorogenic 7-amino-4-methylcoumarin (AMC)-labeled peptide by fluorescence assay.

In general, inhibition refers to the percentage by which the read-out fell short of the control. A high value points to strong suppression. Consider `NC(=O)c1ccc(Oc2cccc3ccccc23)nc1`, for which the inhibition is under 10% in experiment [1], 33% in experiment [2] and 39% in experiment [3].

For `NC(=O)c1ccc(Nc2ccc3ccccc3c2)nc1`, the inhibition in experiment [1] is under 10%; in experiment [2] it was 20%; in experiment [3], under 10%.

Turning to `Cc1ccc(C(=O)Nc2cccc3cccc(S(=O)(=O)O)c23)cc1`, the inhibition in experiment [1] was under 10%; in experiment [2], under 10%; in experiment [3], 10%.

Turning to `O=C(Nc1cccc2cccc(S(=O)(=O)O)c12)c1cccc([N+](=O)[O-])c1`, the inhibition in experiment [1], in experiment [2] and in experiment [3] was under 10% throughout.

As for `NC(=O)c1ccc(Oc2cccc3ccccc23)cc1`, the inhibition in experiment [1] is under 10%; in experiment [2], 27%; in experiment [3] it was 10%.

`Nc1cccc(C(=O)Nc2ccc(S(=O)(=O)O)c3ccccc23)c1`: the inhibition in experiment [1], in experiment [2] and in experiment [3] was under 10% throughout.

Consider `O=C(Nc1ccc(S(=O)(=O)O)c2ccccc12)c1cccc([N+](=O)[O-])c1`, for which the inhibition was under 10% in experiment [1], 29% in experiment [2] and 23% in experiment [3].

Usually IC50 stands for the concentration at which inhibition is half-maximal. The low end stands for inhibition by little substance, the high end for a need for much substance. Regarding `NC(=O)c1cncc(Oc2ccc3c(NC(=O)c4cccc([N+](=O)[O-])c4)cccc3c2)c1`, the results for the IC50 in experiment [4] and in experiment [5] were 11.7 µM and 0.811 µM, respectively.

In the case of `NC(=O)c1cccc(Oc2cccc3ccccc23)c1`, the values for the inhibition in experiment [1], in experiment [2] and in experiment [3] were 35%, 66% and 35%, respectively.

Regarding `NC(=O)c1cncc(Sc2ccc3ccccc3c2)c1`, the IC50 came out at 26.9 µM in experiment [4] and 12.1 µM in experiment [5].

On to `Cc1ccc(C(=O)Nc2cccc3cc(S(=O)(=O)O)ccc23)cc1`, for which the inhibition in experiment [1] was 19%; in experiment [2], 24%; in experiment [3] it was 22%.

Turning to `O=C(Nc1cccc2cc(S(=O)(=O)O)ccc12)c1ccccc1`, the inhibition is under 10% in experiment [1], under 10% in experiment [2] and 21% in experiment [3].

As to `Cc1ccc(C(=O)Nc2cccc3cc(S(=O)(=O)O)ccc23)cc1[N+](=O)[O-]`, the inhibition was 19% in experiment [1], 38% in experiment [2] and under 10% in experiment [3].

As to `NC(=O)c1cncc(Oc2cccc3c(NC(=O)c4cccc([N+](=O)[O-])c4)cccc23)c1`, the IC50 in experiment [4] stood at 64 µM; in experiment [5] it was 0.434 µM.

Turning to `NC(=O)c1ccc(Oc2ccc3ccccc3c2)nc1`, the inhibition came out at 31% in experiment [1], 61% in experiment [2] and 44% in experiment [3].

Turning to `Cc1ccc(C(=O)Nc2cccc3cccc(S(=O)(=O)O)c23)cc1N`, the inhibition in experiment [1] is 12%; in experiment [2], under 10%; in experiment [3], 16%.

For `NC(=O)c1cncc(Sc2cccc3ccccc23)c1`, the half-inhibitory concentration (IC50) in experiment [4] stood at 30.3 µM; in experiment [5] it was 9.8 µM.

Turning to `NC(=O)c1ccc(Sc2cccc3ccccc23)nc1`, the results for the inhibition in experiment [1], in experiment [2] and in experiment [3] were 40%, 47% and 42%, respectively.

For `NC(=O)c1cncc(Nc2ccc3ccccc3c2)c1`, the IC50 in experiment [4] amounted to 33.6 µM; in experiment [5] it was 4.3 µM.

As for `NC(=O)c1ccc(Nc2cccc3ccccc23)nc1`, the inhibition in experiment [1] came out at 19%; in experiment [2], 41%; in experiment [3], 38%.

Take `NC(=O)c1cncc(Oc2cccc3c(NC(=O)c4cccnc4)cccc23)c1`: the IC50 stood at 70.7 µM in experiment [4] and 0.558 µM in experiment [5].

For `NC(=O)c1cccc(Nc2ccc3ccccc3c2)c1`, the inhibition was under 10% in experiment [1], 65% in experiment [2] and under 10% in experiment [3].

With `NC(=O)c1ccc(Nc2cccc3ccccc23)cc1`, the inhibition is under 10% in experiment [1], under 10% in experiment [2] and 22% in experiment [3].

As for `NC(=O)c1ccc(Sc2ccc3ccccc3c2)nc1`, the inhibition in experiment [1] came to 31%; in experiment [2], 73%; in experiment [3], 42%.

`NC(=O)c1cncc(Oc2cccc3c(NC(=O)c4ccncc4)cccc23)c1`: the IC50 was 15.4 µM in experiment [4] and 0.955 µM in experiment [5].

In the case of `Cc1ccc(C(=O)Nc2ccc(S(=O)(=O)O)c3ccccc23)cc1`, the inhibition in experiment [1] came out at 22%; in experiment [2] it was 17%; in experiment [3] it was 25%.

Turning to `NC(=O)c1ccc(Nc2ccc3ccccc3c2)cc1`, the inhibition in experiment [1] was under 10%; in experiment [2] it was 15%; in experiment [3], 47%.

For the molecule `NC(=O)c1cccc(Nc2cccc3ccccc23)c1`, the inhibition in experiment [1] is under 10%; in experiment [2] it was 46%; in experiment [3], under 10%.

Regarding `NC(=O)c1cccc(Oc2ccc3ccccc3c2)c1`, the results for the inhibition in experiment [1], in experiment [2] and in experiment [3] were 47%, 84% and 49%, respectively.

In the case of `Cc1ccc(C(=O)Nc2cccc3cc(S(=O)(=O)O)ccc23)cc1N`, the inhibition in experiment [1] was 14%; in experiment [2], 13%; in experiment [3] it was under 10%.

`O=C(Nc1cccc2cc(S(=O)(=O)O)ccc12)c1cccc([N+](=O)[O-])c1`: the inhibition in experiment [1] is 13%; in experiment [2], 22%; in experiment [3], under 10%.

As to `Nc1cccc(C(=O)Nc2cccc3cc(S(=O)(=O)O)ccc23)c1`, the inhibition in experiment [1], in experiment [2] and in experiment [3] was under 10% each time.

As for `O=C(Nc1ccc(S(=O)(=O)O)c2ccccc12)c1ccccc1`, the inhibition is under 10% in experiment [1], 10% in experiment [2] and 25% in experiment [3].

On to `N#C/C(=C\c1ccc(-c2cc(Cl)ccc2Cl)o1)C(=O)Nc1cccc2ncccc12`, for which it took 135 µM to reach half-maximal inhibition in experiment [4] (IC50).

In the case of `Cc1ccc(C(=O)Nc2cccc3cccc(S(=O)(=O)O)c23)cc1[N+](=O)[O-]`, the figures for the inhibition in experiment [1], in experiment [2] and in experiment [3] were 26%, under 10% and under 10%, respectively.

Regarding `NC(=O)c1ccc(Sc2cccc3ccccc23)cc1`, the inhibition in experiment [1] is under 10%; in experiment [2], 24%; in experiment [3], under 10%.

On to `NC(=O)c1ccc(Oc2ccc3ccccc3c2)cc1`, for which the inhibition in experiment [1] is under 10%; in experiment [2] it was 16%; in experiment [3] it was under 10%.

`NC(=O)c1ccc(Sc2ccc3ccccc3c2)cc1`: the values for the inhibition in experiment [1], in experiment [2] and in experiment [3] were 20%, 41% and under 10%, respectively.

`O=C(Nc1cccc2cccc(S(=O)(=O)O)c12)c1ccccc1`: the inhibition was 17% in experiment [1], under 10% in experiment [2] and 15% in experiment [3].

As to `Nc1cccc(C(=O)Nc2cccc3cccc(S(=O)(=O)O)c23)c1`, the values for the inhibition in experiment [1], in experiment [2] and in experiment [3] were 12%, under 10% and under 10%, respectively.

Regarding `Cc1ccc(C(=O)Nc2ccc(S(=O)(=O)O)c3ccccc23)cc1[N+](=O)[O-]`, the inhibition in experiment [1] amounted to 23%; in experiment [2], 25%; in experiment [3], 22%.

For `Cc1ccc(C(=O)Nc2ccc(S(=O)(=O)O)c3ccccc23)cc1N`, the results for the inhibition in experiment [1], in experiment [2] and in experiment [3] were 11%, 13% and under 10%, respectively.
